# Data reported in ChEMBL document CHEMBL5244273, “Tuberculosis: An Overview of the Immunogenic Response, Disease Progression, and Medicinal Chemistry Efforts in the Last Decade toward the Development of Potential Drugs for Extensively Drug-Resistant Tuberculosis Strains” (J Med Chem, 2021).
# System: Mycobacterium tuberculosis
# Assay: Antimycobacterial activity against Mycobacterium tuberculosis H37Rv
# Type: functional
SMILES,MIC,MIC90,MIC99,MIC50
Cc1ccc(-c2nnc(S)o2)cc1,9.6 µg/mL,–,–,–
COC(=O)c1c(NC(=O)c2c(F)c(F)c(F)c(F)c2F)sc2c1CCCCC2,1 µg/mL,–,–,–
Sc1nnc(-c2ccccc2Cl)o1,21.2 µg/mL,–,–,–
Sc1nnc(-c2ccc(Cl)cc2)o1,5.3 µg/mL,–,–,–
Fc1ccc(-c2nnc(S)o2)cc1,> 25 µg/mL,–,–,–
Sc1nnc(-c2ccccc2Br)o1,> 25 µg/mL,–,–,–
CCOC(=O)c1c(NC(=O)c2c(F)c(F)c(F)c(F)c2F)sc(C(N)=O)c1C,0.5 µg/mL,–,–,–
S=c1[nH]nc(C2CCCCC2)o1,> 25 µg/mL,–,–,–
CCOC(=O)c1c(NC(=O)c2c(F)c(F)c(F)c(F)c2F)sc2c1CCCCC2,1.9 µg/mL,–,–,–
Nc1ccsc1-c1nnc(S)o1,21.3 µg/mL,–,–,–
NC(=O)N1N=C(c2ccc3oc(N)nc3c2)CC1c1cccs1 (stereo unspecified),6.25 µg/mL,–,–,–
O=[N+]([O-])c1ccc(-c2nnc(S)o2)cc1,3.1 µg/mL,–,–,–
CC(=O)N1/C(=C/c2cccc(-c3cnn(C)c3)c2)C(=O)c2ccccc21,–,4.93 µM,5.61 µM,–
CC(=O)N1/C(=C/c2ccc(Oc3ccc(Cl)cc3)cc2)C(=O)c2cc(Cl)ccc21,–,6.02 µM,6.87 µM,–
NC(=O)N1N=C(c2ccc3oc(S)nc3c2)CC1c1cccs1 (stereo unspecified),12.5 µg/mL,–,–,–
CC(=O)N1N=C(c2ccc3oc(N)nc3c2)CC1c1cccs1 (stereo unspecified),6.25 µg/mL,–,–,–
CC(=O)N1N=C(c2ccc3oc(NC(=O)c4ccccc4)nc3c2)CC1c1cccs1 (stereo unspecified),6.25 µg/mL,–,–,–
CC(=O)N1N=C(c2ccc3oc(-c4ccccn4)nc3c2)CC1c1cccs1 (stereo unspecified),25 µg/mL,–,–,–
COc1ccccc1-c1nc2cc(C3=NN(C(C)=O)C(c4cccs4)C3)ccc2o1 (stereo unspecified),25 µg/mL,–,–,–
CC(=O)N1/C(=C/c2ccc(Oc3ccc(Cl)cc3)cc2)C(=O)c2ccccc21,–,6.2 µM,8.4 µM,–
CC(=O)N1/C(=C/c2ccc(OCc3ccccc3)cc2)C(=O)c2ccccc21,–,1.89 µM,2.58 µM,–
CC(=O)N1/C(=C/c2ccc(-c3ccccc3)cc2)C(=O)c2cc(C)ccc21,–,> 20 µM,> 20 µM,–
CC(=O)N1N=C(c2ccc3oc(S)nc3c2)CC1c1cccs1 (stereo unspecified),6.25 µg/mL,–,–,–

SMILES,MIC,MIC90,MIC99,MIC50
COC(=O)c1c(NC(=O)c2ccc(C)cc2)sc2c1CCCCC2,> 20.2 µg/mL,–,–,–
CCc1c(C)sc(NC(=O)c2c(F)c(F)c(F)c(F)c2F)c1C(=O)OC(C)C,1 µg/mL,–,–,–
CC(=O)N1/C(=C/c2ccc(-c3ccsc3)cc2)C(=O)c2ccccc21,–,0.336 µM,0.6 µM,–
Sc1nnc(-c2ccccc2I)o1,15.2 µg/mL,–,–,–
CCCC(=O)Nc1nc2cc(C3=NN(C(C)=O)C(c4cccs4)C3)ccc2o1 (stereo unspecified),12.5 µg/mL,–,–,–
CC(=O)Nc1nc2cc(C3=NN(C(C)=O)C(c4cccs4)C3)ccc2o1 (stereo unspecified),25 µg/mL,–,–,–
CC(=O)N1/C(=C/c2ccc(-c3cnn(C)c3)cc2)C(=O)c2ccccc21,–,3.16 µM,3.66 µM,–
CC(=O)N1N=C(c2ccc3oc(-c4ccccc4Cl)nc3c2)CC1c1cccs1 (stereo unspecified),25 µg/mL,–,–,–
Cc1c(C(N)=O)sc(NC(=O)c2c(F)c(F)c(F)c(F)c2F)c1C(=O)O,78.4 µg/mL,–,–,–
Sc1nnc(-c2ccc(-c3ccccc3)cc2)o1,> 25 µg/mL,–,–,–
COC(=O)c1c(NC(=O)c2ccccc2F)sc2c1CCCCC2,20.2 µg/mL,–,–,–
CC(=O)N1N=C(c2ccc3oc(C(=O)c4ccccc4)nc3c2)CC1c1cccs1 (stereo unspecified),50 µg/mL,–,–,–
COC(=O)c1c(NC(=O)c2c(F)c(F)c(F)c(F)c2F)sc(-c2ccc(Cl)cc2)c1C(=O)OC,3.5 µg/mL,–,–,–
CC(=O)N1N=C(c2ccc3oc(NC(=O)c4cccc(Cl)c4)nc3c2)CC1c1cccs1 (stereo unspecified),12.5 µg/mL,–,–,–
COc1cc(-c2nc3cc(C4=NN(C(C)=O)C(c5cccs5)C4)ccc3o2)cc(OC)c1OC (stereo unspecified),25 µg/mL,–,–,–
Sc1nnc(-c2ccc(Br)cc2)o1,> 25 µg/mL,–,–,–
COC(=O)c1sc(NC(=O)c2c(F)c(F)c(F)c(F)c2F)c(C(=O)ON)c1C,4.9 µg/mL,–,–,–
CC(=O)N1/C(=C/c2cccc(-c3ccccc3)c2)C(=O)c2ccccc21,–,4.49 µM,4.94 µM,–
CC(=O)N1N=C(c2ccc3oc(-c4ccccc4)nc3c2)CC1c1cccs1 (stereo unspecified),25 µg/mL,–,–,–
Oc1cc(O)cc(-c2nnc(S)o2)c1,21 µg/mL,–,–,–
COc1cccc(-c2nc3cc(C4=NN(C(C)=O)C(c5cccs5)C4)ccc3o2)c1 (stereo unspecified),25 µg/mL,–,–,–
CCOC(=O)c1sc(NC(=O)c2c(F)c(F)c(F)c(F)c2F)c(C(=O)OCC)c1C,7.1 µg/mL,–,–,–
O=[N+]([O-])c1ccc([N+](=O)[O-])c(-c2nnc(S)o2)c1,6.7 µg/mL,–,–,–

SMILES,MIC,MIC90,MIC99,MIC50
O=[N+]([O-])c1ccc(F)c(-c2nnc(S)o2)c1,> 25 µg/mL,–,–,–
FC(F)(F)c1ccc(-c2nnc(S)o2)cc1,> 25 µg/mL,–,–,–
COC(=O)c1c(NC(=O)c2c(F)c(F)c(F)c(F)c2F)sc2c1CCC2,2.1 µg/mL,–,–,–
Oc1ccc(-c2nnc(S)[nH]2)cc1O,10.5 µg/mL,–,–,–
NOC(=O)c1c(NC(=O)c2c(F)c(F)c(F)c(F)c2F)sc2c1CCCCC2,15.3 µg/mL,–,–,–
COc1ccc(-c2nnc(S)o2)cc1,20.8 µg/mL,–,–,–
CC(=O)N1N=C(c2ccc3oc(-c4ccncc4)nc3c2)CC1c1cccs1 (stereo unspecified),25 µg/mL,–,–,–
CC(=O)N1/C(=C/c2cccc(-c3ccc(OC(F)(F)F)cc3)c2)C(=O)c2ccccc21,–,> 20 µM,> 20 µM,–
CC(=O)N1N=C(c2ccc3oc(NC(=O)c4ccccc4Cl)nc3c2)CC1c1cccs1 (stereo unspecified),25 µg/mL,–,–,–
COc1ccc(-c2nc3cc(C4=NN(C(C)=O)C(c5cccs5)C4)ccc3o2)cc1 (stereo unspecified),12.5 µg/mL,–,–,–
CC(=O)N1N=C(c2ccc3oc(-c4cccnc4)nc3c2)CC1c1cccs1 (stereo unspecified),25 µg/mL,–,–,–
CC(=O)N1N=C(c2ccc3oc(NC(=O)C(C)C)nc3c2)CC1c1cccs1 (stereo unspecified),25 µg/mL,–,–,–
CC(=O)N1/C(=C/c2ccc(-c3ccc(OC(F)(F)F)cc3)cc2)C(=O)c2cc(Cl)ccc21,–,> 20 µM,> 20 µM,–
CC(=O)N1/C(=C/c2ccc(-c3ccc(C(F)(F)F)cc3)cc2)C(=O)c2ccccc21,–,2.65 µM,4.3 µM,–
CC(=O)N1/C(=C/c2cccc(-c3ccc(C(F)(F)F)cc3)c2)C(=O)c2ccccc21,–,11.6 µM,17.5 µM,–
CC(=O)N1/C(=C/c2cccc(-c3ccsc3)c2)C(=O)c2ccccc21,–,3.19 µM,3.34 µM,–
CC(=O)N1/C(=C/c2cccc(-c3ccc(F)cc3)c2)C(=O)c2ccccc21,–,5.1 µM,5.66 µM,–
CC(=O)N1/C(=C/c2ccc(-c3cnc4ccccc4c3)cc2)C(=O)c2ccccc21,–,0.649 µM,0.736 µM,–
NOC(=O)c1c(NC(=O)c2c(F)c(F)c(F)c(F)c2F)sc2c1CCC2,10.6 µg/mL,–,–,–
COc1ccccc1C(=O)Nc1nc2cc(C3=NN(C(C)=O)C(c4cccs4)C3)ccc2o1 (stereo unspecified),25 µg/mL,–,–,–
CCn1cc(C(=O)O)c(=O)c2cc(F)c(-n3cccc3)cc21 [IRLOXACIN],–,–,–,8 µg/mL

# System: Mycobacterium tuberculosis
# Assay: Antimycobacterial activity against Mycobacterium tuberculosis H37Rv assessed as inhibition of bacterial growth by resazurin dye based fluorescence analysis
# Type: functional
row,SMILES,MIC
1,O=S(=O)(NCCO)c1ccc(-c2nnn(Cc3ccc(F)cn3)n2)cc1,0.1 µM
2,CCNS(=O)(=O)c1ccc(-c2nnn(Cc3ccncc3)n2)cc1,0.1 µM
3,C[C@@H](O)CNS(=O)(=O)c1ccc(-c2nnn(Cc3ccc(F)cn3)n2)cc1,0.1 µM
4,CNS(=O)(=O)c1ccc(-c2nnn(Cc3ccc(F)cc3)n2)cc1,0.1 µM
5,O=S(=O)(NCC(O)CO)c1ccc(-c2nnn(Cc3ccc(F)cc3)n2)cc1 (stereo unspecified),0.1 µM
6,NC(=O)CNS(=O)(=O)c1ccc(-c2nnn(CC3CCC(F)(F)CC3)n2)cc1,0.1 µM
7,O=S(=O)(NCCO)c1ccc(-c2nnn(CC3CCCCO3)n2)cc1 (stereo unspecified),0.1 µM
8,COc1ccc(Cn2nnc(-c3ccc(S(=O)(=O)NC[C@@H](C)O)cc3)n2)cc1,0.1 µM
9,O=S(=O)(NC(CO)CO)c1ccc(-c2nnn(Cc3ccc(F)cc3)n2)cc1,0.1 µM
10,O=S(=O)(NCCO)c1ccc(-c2nnn(Cc3ccc(F)cc3)n2)cc1,0.1 µM
11,COc1ccc(Cn2nnc(-c3ccc(S(=O)(=O)NC[C@@H](C)O)cc3)n2)nc1,0.1 µM
12,C[C@@H](O)CNS(=O)(=O)c1ccc(-c2nnn(Cc3ccc(F)cc3)n2)cc1,0.1 µM
13,N#Cc1ccc(Cn2nnc(-c3ccc(S(=O)(=O)NCCO)cc3)n2)cc1,0.1 µM
14,CCc1ccc(Cn2nnc(-c3ccc(S(=O)(=O)NCCO)cc3)n2)cc1,0.1 µM
15,NC(=O)CNS(=O)(=O)c1ccc(-c2nnn(Cc3ccc(F)cn3)n2)cc1,0.1 µM
16,N#Cc1ccc(Cn2nnc(-c3ccc(S(=O)(=O)NCCO)cc3)n2)nc1,0.1 µM
17,O=S(=O)(NCCO)c1ccc(-c2nnn(Cc3ccncc3)n2)cc1,0.1 µM
18,O=S(=O)(NCCO)c1ccc(-c2nnn(Cc3ccncn3)n2)cc1,0.1 µM
19,O=S(=O)(NCCO)c1ccc(-c2nnn(CC3CCC(F)(F)CC3)n2)cc1,0.1 µM
20,C[C@@H](O)CNS(=O)(=O)c1ccc(-c2nnn(Cc3ccncc3)n2)cc1,0.1 µM

row,SMILES,MIC
1,Cc1ccc(Cn2nnc(-c3ccc(S(=O)(=O)NC[C@@H](C)O)cc3)n2)nc1,0.1 µM
2,O=S(=O)(NC(CO)CO)c1ccc(-c2nnn(Cc3ccncc3)n2)cc1,0.1 µM
3,CNS(=O)(=O)c1ccc(-c2nnn(Cc3ccncc3)n2)cc1,0.1 µM
4,Cc1nccc(Cn2nnc(-c3ccc(S(=O)(=O)NCCO)cc3)n2)n1,0.1 µM
5,NC(=O)CNS(=O)(=O)c1ccc(-c2nnn(Cc3ccc(F)c(F)c3)n2)cc1,0.1 µM
6,O=S(=O)(NCCO)c1ccc(-c2nnn(Cc3ccc(C(F)F)cc3)n2)cc1,0.1 µM
7,Cc1ccc(Cn2nnc(-c3ccc(S(=O)(=O)NCCO)cc3)n2)nc1,0.1 µM
8,COc1ccc(Cn2nnc(-c3ccc(S(=O)(=O)NCC(N)=O)cc3)n2)cc1,0.1 µM
9,Cc1cc(Cn2nnc(-c3ccc(S(=O)(=O)NCCO)cc3)n2)ccn1,0.1 µM
10,Cc1ccc(Cn2nnc(-c3ccc(S(=O)(=O)NCC(N)=O)cc3)n2)cc1,0.1 µM
11,COc1ccc(Cn2nnc(-c3ccc(S(=O)(=O)NCCO)cc3)n2)nc1,0.1 µM
12,C[C@H](O)CNS(=O)(=O)c1ccc(-c2nnn(Cc3ccc(F)cc3)n2)cc1,0.1 µM
13,O=S(=O)(NCCO)c1ccc(-c2nnn(Cc3ncc(F)cc3F)n2)cc1,0.1 µM
14,Cc1cccc(Cn2nnc(-c3ccc(S(=O)(=O)NCCO)cc3)n2)n1,0.1 µM
15,O=S(=O)(NCCO)c1ccc(-c2nnn(Cc3ccc(Cl)cc3)n2)cc1,0.1 µM
16,COc1ccc(Cn2nnc(-c3ccc(S(=O)(=O)NCCO)cc3)n2)cc1F,0.1 µM
17,O=S(=O)(NCCO)c1ccc(-c2nnn(Cc3ccc(Cl)cn3)n2)cc1,0.1 µM
18,C[C@@H](O)CNS(=O)(=O)c1ccc(-c2nnn(CC3CCC(F)(F)CC3)n2)cc1,0.1 µM
19,COc1ccc(Cn2nnc(-c3ccc(S(=O)(=O)NCCO)cc3)n2)cc1,0.1 µM
